Test results reported in patent US9561228B2 (Celgene Avilomics Research, Inc., priority 2013, dated 2017).

Legend:
Assay type in all cases: cell-based
[1] = test system: HT-29 cells (colorectal adenocarcinoma); assay: Inhibition of cancer cell proliferation, HT-29 (CellTiterGlo, 72 hours); conditions: Homo sapiens
Procedure, shortened: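 Proliferation over 72 h at 37° C was read by CellTiterGlo luminescence, translated to cell counts with a cell-density standard curve (390–50,000 cells). Compound added as 3-fold dilutions from a 5,000 nM two-fold stock to 3000 seeded HT-29 cells; GI50 from percent inhibition relative to untreated wells.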

[2] = test system: A375 cells (malignant melanoma); assay: Inhibition of cancer cell proliferation, A375 (CellTiterGlo, 72 hours); conditions: Homo sapiens, A-375
Procedure, shortened: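 GI50 derived from % growth inhibition relative to untreated wells, after luminescence (CellTiterGlo, 10 min) was converted to cell counts using a standard curve. Compound given as 3-fold dilutions from a 2× 5,000 nM stock in serum-free DMEM; 3000 A375 cells/well, 72 h culture at 37 °C.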

[3] = test system: ERK1/2 phosphorylation of p90RSK in HCT116 cells; assay: Detection of total and phospho-RSK by MSD ELISA (HCT116); conditions: Homo sapiens, HCT-116, read-out: ERK1/ERK2 PRSK HCT116 EC50
Procedure, shortened: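 ERK1/2 activity read in cells as p90RSK phosphorylation: lysates from HCT116 cells given compound for 2 h at 37° C were captured on MSD plates. Detection used a pSer380 RSK or a total RSK antibody with SulfoTag secondaries.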

| SMILES | GI50 [1] [µM] | GI50 [2] [µM] | EC50 [3] [µM] |
| --- | --- | --- | --- |
| C=CC(=O)Nc1cc(C)ccc1Nc1nc(Nc2cc(OC)ncc2C)ncc1C(F)(F)F [Compound I-90, N-(2-((2-((2-Methoxy-5-methylpyridin-4-yl)amino)-5-(trifluoromethyl)pyrimidin-4-yl)amino)-5-methylphenyl)acrylamide] | 0.101 to 0.5 | 0.101 to 0.5 | 0.101 to 0.5 |
| C=CC(=O)Nc1cc(OC)ccc1Nc1nc(Nc2cc(OC)nc(N3CCN(C(C)=O)CC3)c2)ncc1C(F)(F)F [Compound I-91, N-(2-((2-((2-(4-Acetylpiperazin-1-yl)-6-methoxypyridin-4-yl)amino)-5-(trifluoromethyl)pyrimidin-4-yl)amino)-5-methoxyphenyl)acrylamide] | < 0.1 | < 0.1 | < 0.1 |
| C=CC(=O)Nc1cc(OC)ccc1Nc1nc(Nc2cc(OC)ncc2C)ncc1Cl [Compound I-242, N-(2-((5-chloro-2-((2-methoxy-5-methylpyridin-4-yl)amino)pyrimidin-4-yl)amino)-5-methoxyphenyl)acrylamide] | < 0.1 | < 0.1 | > 1 |
| C=CC(=O)Nc1ccccc1Nc1nc(Nc2cc(OC)nc(N3CCCC3)c2)ncc1C(F)(F)F [Compound I-281, N-(2-((2-((2-Methoxy-6-(pyrrolidin-1-yl)pyridin-4-yl)amino)-5-(trifluoromethyl)pyrimidin-4-yl)amino)phenyl)acrylamide] | < 0.1 | < 0.1 | < 0.1 |
| C=CC(=O)Nc1ccccc1Nc1nc(Nc2cc(OC)nc(N3CCCCC3)c2)ncc1C(F)(F)F [Compound I-282, N-(2-((2-((2-Methoxy-6-(piperidin-1-yl)pyridin-4-yl)amino)-5-(trifluoromethyl)pyrimidin-4-yl)amino)phenyl)acrylamide] | < 0.1 | < 0.1 | < 0.1 |
| C=CC(=O)Nc1ccccc1Nc1nc(Nc2cc(OC)nc(OCCOC)c2)ncc1C(F)(F)F [Compound I-283, N-(2-((2-((2-Methoxy-6-(2-methoxyethoxyl)pyridin-4-yl)amino)-5-(trifluoromethyl)pyrimidin-4-yl)amino)phenyl)acrylamide] | < 0.1 | < 0.1 | < 0.1 |
| C=CC(=O)Nc1cc(OC)ccc1Nc1nc(Nc2cc(OC)ncc2C)ncc1C(F)(F)F [Compound I-284, N-(5-Methoxy-2-((2-((2-methoxy-5-methylpyridin-4-yl)amino)-5-(trifluoromethyl)pyrimidin-4-yl)amino)phenyl)acrylamide] | 0.501 to 0.999 | < 0.1 | < 0.1 |
| C=CC(=O)Nc1ccccc1Nc1nc(Nc2cc(NCCOC)nc(OC)c2)ncc1C(F)(F)F [Compound I-286, N-(2-((2-((2-Methoxy-6-((2-methoxyethyl)amino)pyridin-4-yl)amino)-5-(trifluoromethyl)pyrimidin-4-yl)amino)phenyl)acrylamide] | < 0.1 | < 0.1 | < 0.1 |
| C=CC(=O)Nc1ccccc1Nc1nc(Nc2cc(OC)nc(N3CCS(=O)(=O)CC3)c2)ncc1C(F)(F)F [Compound I-291, N-(2-((2-((2-(1,1-Dioxidothiomorpholino)-6-methoxypyridin-4-yl)amino)-5-(trifluoromethyl)pyrimidin-4-yl)amino)phenyl)acrylamide] | < 0.1 | < 0.1 | < 0.1 |
| C=CC(=O)Nc1ccccc1Nc1nc(Nc2ccnnc2)ncc1C(F)(F)F [Compound I-293, N-(2-((2-(Pyridazin-4-ylamino)-5-(trifluoromethyl)pyrimidin-4-yl)amino)phenyl)acrylamide] | < 0.1 | < 0.1 | < 0.1 |
| C=CC(=O)Nc1cc(C)ccc1Nc1nc(Nc2cc(OC)nc(N3CCN(C(C)=O)CC3)c2)ncc1Cl [Compound I-296, N-(2-((2-((2-(4-acetylpiperazin-1-yl)-6-methoxypyridin-4-yl)amino)-5-chloropyrimidin-4-yl)amino)-5-methylphenyl)acrylamide] | < 0.1 | < 0.1 | < 0.1 |
| C=CC(=O)Nc1cc(F)ccc1Nc1nc(Nc2cc(OC)ncc2C)ncc1C(F)(F)F [Compound I-322, N-(5-fluoro-2-((2-((2-methoxy-5-methylpyridin-4-yl)amino)-5-(trifluoromethyl)pyrimidin-4-yl)amino)phenyl)acrylamide] | 0.101 to 0.5 | < 0.1 | 0.101 to 0.5 |
| C=CC(=O)Nc1cc(C(F)(F)F)ccc1Nc1nc(Nc2cc(OC)ncc2C)ncc1C(F)(F)F [Compound I-323, N-(2-((2-((2-methoxy-5-methylpyridin-4-yl)amino)-5-(trifluoromethyl)pyrimidin-4-yl)amino)-5-(trifluoromethyl)phenyl)acrylamide] | 0.101 to 0.5 | 0.101 to 0.5 | 0.101 to 0.5 |
| C=CC(=O)Nc1ccccc1Nc1nc(Nc2cc(OC)nc(N3CCN(C)CC3)c2)ncc1C(F)(F)F [Compound I-324, N-(2-((2-((2-methoxy-6-(4-methylpiperazin-1-yl)pyridin-4-yl)amino)-5-(trifluoromethyl)pyrimidin-4-yl)amino)phenyl)acrylamide] | < 0.1 | < 0.1 | < 0.1 |
| C=CC(=O)Nc1cc(C)ccc1Nc1nc(Nc2cc(OC)nc(N3CCN(C)CC3)c2)ncc1C(F)(F)F [Compound I-325, N-(2-((2-((2-methoxy-6-(4-methylpiperazin-1-yl)pyridin-4-yl)amino)-5-(trifluoromethyl)pyrimidin-4-yl)amino)-5-methylphenyl)acrylamide] | < 0.1 | < 0.1 | < 0.1 |
| C=CC(=O)Nc1cc(C)ccc1Nc1nc(Nc2cc(OC)nc(N3CC(O)C3)c2)ncc1C(F)(F)F [Compound I-328, N-(2-((2-((2-(3-hydroxyazetidin-1-yl)-6-methoxypyridin-4-yl)amino)-5-(trifluoromethyl)pyrimidin-4-yl)amino)-5-methylphenyl)acrylamide] | < 0.1 | < 0.1 | < 0.1 |
| C=CS(=O)(=O)Nc1cc(C)ccc1Nc1nc(Nc2cc(OC)ncc2C)ncc1C(F)(F)F [Compound I-333, N-(2-((2-((2-methoxy-5-methylpyridin-4-yl)amino)-5-(trifluoromethyl)pyrimidin-4-yl)amino)-5-methylphenyl)ethenesulfonamide] | > 1 | > 1 | > 1 |
| C=CC(=O)Nc1cc(OC)ccc1Nc1nc(Nc2cc(OC)nc(N3CCN(C)CC3)c2)ncc1C(F)(F)F [Compound I-334, N-(5-methoxy-2-((2-((2-methoxy-6-(4-methylpiperazin-1-yl)pyridin-4-yl)amino)-5-(trifluoromethyl)pyrimidin-4-yl)amino)phenyl)acrylamide] | < 0.1 | < 0.1 | < 0.1 |
| C=CC(=O)Nc1cc(C)ccc1Nc1nc(Nc2cc(OC)nc(N(C)CCOC)c2)ncc1C(F)(F)F [Compound I-336, N-(2-((2-((2-methoxy-6-((2-methoxyethyl)(methyl)amino)pyridin-4-yl)amino)-5-(trifluoromethyl)pyrimidin-4-yl)amino)-5-methylphenyl)acrylamide] | < 0.1 | < 0.1 | 0.101 to 0.5 |
